Data taken from ChEMBL document CHEMBL1649545, “Efficacy of triazoles in a murine disseminated infection by Candida krusei” (2009).
Values after ≈ are worked out from the molar mass of the structure shown. Active and inactive are the calls of the source. The rule behind the calls is not given here.

What was measured:
[1] = tested on: Pichia kudriavzevii; assay: Antifungal activity against 5 x 10^7 CFU Candida krusei FMR9728 infected OF1 mouse disseminated infection model assessed as prolongation of mouse survival at 50 mg/kg/day, po for 5 days administered 24 hrs postinfection measured daily for 15 days; assay type: functional, organism-based
[2] = tested on: Pichia kudriavzevii; assay: Antifungal activity against 5 x 10^7 CFU Candida krusei FMR9728 infected OF1 mouse disseminated infection model assessed as prolongation of mouse survival at 100 mg/kg/day, po for 5 days administered 24 hrs postinfection measured daily for 15 days; assay type: functional, organism-based
[3] = tested on: Pichia kudriavzevii; assay: Antifungal activity against 5 x 10^7 CFU Candida krusei FMR9729 infected OF1 mouse disseminated infection model assessed as prolongation of mouse survival at 50 mg/kg/day, po for 5 days administered 24 hrs postinfection measured daily for 15 days; assay type: functional, organism-based
[4] = tested on: Pichia kudriavzevii; assay: Antifungal activity against 5 x 10^7 CFU Candida krusei FMR9729 infected OF1 mouse disseminated infection model assessed as prolongation of mouse survival at 100 mg/kg/day, po for 5 days administered 24 hrs postinfection measured daily for 15 days; assay type: functional, organism-based
[5] = tested on: Pichia kudriavzevii; assay: Antifungal activity against Candida krusei FMR9728 infected OF1 mouse disseminated infection model assessed as reduction in kidney tissue fungal burden at 50 mg/kg/day, po for 5 days administered 24 hrs postinfection measured after 24 hrs post treatment relative to control; assay type: functional, organism-based
[6] = tested on: Pichia kudriavzevii; assay: Antifungal activity against Candida krusei FMR9728 infected OF1 mouse disseminated infection model assessed as reduction in kidney tissue fungal burden at 100 mg/kg/day, po for 5 days administered 24 hrs postinfection measured after 24 hrs post treatment relative to control; assay type: functional, organism-based
[7] = tested on: Pichia kudriavzevii; assay: Antifungal activity against Candida krusei FMR9728 infected OF1 mouse disseminated infection model assessed as reduction in spleen tissue fungal burden at 50 mg/kg/day, po for 5 days administered 24 hrs postinfection measured after 24 hrs post treatment relative to control; assay type: functional, organism-based
[8] = tested on: Pichia kudriavzevii; assay: Antifungal activity against Candida krusei FMR9728 infected OF1 mouse disseminated infection model assessed as reduction in spleen tissue fungal burden at 100 mg/kg/day, po for 5 days administered 24 hrs postinfection measured after 24 hrs post treatment relative to control; assay type: functional, organism-based
[9] = tested on: Pichia kudriavzevii; assay: Antifungal activity against Candida krusei FMR9729 infected OF1 mouse disseminated infection model assessed as reduction in kidney tissue fungal burden at 50 mg/kg/day, po for 5 days administered 24 hrs postinfection measured after 24 hrs post treatment relative to control; assay type: functional, organism-based
[10] = tested on: Pichia kudriavzevii; assay: Antifungal activity against Candida krusei FMR9729 infected OF1 mouse disseminated infection model assessed as reduction in kidney tissue fungal burden at 100 mg/kg/day, po for 5 days administered 24 hrs postinfection measured after 24 hrs post treatment relative to control; assay type: functional, organism-based
[11] = tested on: Pichia kudriavzevii; assay: Antifungal activity against Candida krusei FMR9729 infected OF1 mouse disseminated infection model assessed as reduction in spleen tissue fungal burden at 50 mg/kg/day, po for 5 days administered 24 hrs postinfection measured after 24 hrs post treatment relative to control; assay type: functional, organism-based
[12] = tested on: Pichia kudriavzevii; assay: Antifungal activity against Candida krusei FMR9729 infected OF1 mouse disseminated infection model assessed as reduction in spleen tissue fungal burden at 100 mg/kg/day, po for 5 days administered 24 hrs postinfection measured after 24 hrs post treatment relative to control; assay type: functional, organism-based
[13] = tested on: Pichia kudriavzevii; assay: Antifungal activity against Candida krusei FMR9728 by M27-A2 broth dilution method; assay type: functional
[14] = tested on: Pichia kudriavzevii; assay: Antifungal activity against Candida krusei FMR9729 by M27-A2 broth dilution method; assay type: functional
[15] = tested on: Pichia kudriavzevii; assay: Antifungal activity against 5 x 10^7 CFU Candida krusei FMR9728 infected OF1 mouse disseminated infection model assessed as prolongation of mouse survival at 60 mg/kg/day, po for 5 days administered 24 hrs postinfection measured daily for 15 days; assay type: functional, organism-based
[16] = tested on: Pichia kudriavzevii; assay: Antifungal activity against 5 x 10^7 CFU Candida krusei FMR9729 infected OF1 mouse disseminated infection model assessed as prolongation of mouse survival at 10 mg/kg/day, iv for 5 days administered 24 hrs postinfection measured daily for 15 days; assay type: functional, organism-based
[17] = tested on: Pichia kudriavzevii; assay: Antifungal activity against 5 x 10^7 CFU Candida krusei FMR9729 infected OF1 mouse disseminated infection model assessed as prolongation of mouse survival at 20 mg/kg/day, iv for 5 days administered 24 hrs postinfection measured daily for 15 days; assay type: functional, organism-based
[18] = tested on: Pichia kudriavzevii; assay: Antifungal activity against 5 x 10^7 CFU Candida krusei FMR9729 infected OF1 mouse disseminated infection model assessed as prolongation of mouse survival at 40 mg/kg/day, po for 5 days administered 24 hrs postinfection measured daily for 15 days; assay type: functional, organism-based
[19] = tested on: Pichia kudriavzevii; assay: Antifungal activity against 5 x 10^7 CFU Candida krusei FMR9729 infected OF1 mouse disseminated infection model assessed as prolongation of mouse survival at 60 mg/kg/day, po for 5 days administered 24 hrs postinfection measured daily for 15 days; assay type: functional, organism-based
[20] = tested on: Pichia kudriavzevii; assay: Antifungal activity against Candida krusei FMR9728 infected OF1 mouse disseminated infection model assessed as reduction in kidney tissue fungal burden at 10 mg/kg/day, iv for 5 days administered 24 hrs postinfection measured after 24 hrs post treatment relative to control; assay type: functional, organism-based
[21] = tested on: Pichia kudriavzevii; assay: Antifungal activity against Candida krusei FMR9728 infected OF1 mouse disseminated infection model assessed as reduction in kidney tissue fungal burden at 20 mg/kg/day, iv for 5 days administered 24 hrs postinfection measured after 24 hrs post treatment relative to control; assay type: functional, organism-based
[22] = tested on: Pichia kudriavzevii; assay: Antifungal activity against Candida krusei FMR9728 infected OF1 mouse disseminated infection model assessed as reduction in kidney tissue fungal burden at 40 mg/kg/day, po for 5 days administered 24 hrs postinfection measured after 24 hrs post treatment relative to control; assay type: functional, organism-based
[23] = tested on: Pichia kudriavzevii; assay: Antifungal activity against Candida krusei FMR9728 infected OF1 mouse disseminated infection model assessed as reduction in kidney tissue fungal burden at 60 mg/kg/day, po for 5 days administered 24 hrs postinfection measured after 24 hrs post treatment relative to control; assay type: functional, organism-based
[24] = tested on: Pichia kudriavzevii; assay: Antifungal activity against Candida krusei FMR9728 infected OF1 mouse disseminated infection model assessed as reduction in spleen tissue fungal burden at 10 mg/kg/day, iv for 5 days administered 24 hrs postinfection measured after 24 hrs post treatment relative to control; assay type: functional, organism-based
[25] = tested on: Pichia kudriavzevii; assay: Antifungal activity against Candida krusei FMR9728 infected OF1 mouse disseminated infection model assessed as reduction in spleen tissue fungal burden at 20 mg/kg/day, iv for 5 days administered 24 hrs postinfection measured after 24 hrs post treatment relative to control; assay type: functional, organism-based
[26] = tested on: Pichia kudriavzevii; assay: Antifungal activity against Candida krusei FMR9728 infected OF1 mouse disseminated infection model assessed as reduction in spleen tissue fungal burden at 40 mg/kg/day, po for 5 days administered 24 hrs postinfection measured after 24 hrs post treatment relative to control; assay type: functional, organism-based
[27] = tested on: Pichia kudriavzevii; assay: Antifungal activity against Candida krusei FMR9728 infected OF1 mouse disseminated infection model assessed as reduction in spleen tissue fungal burden at 60 mg/kg/day, po for 5 days administered 24 hrs postinfection measured after 24 hrs post treatment relative to control; assay type: functional, organism-based
[28] = tested on: Pichia kudriavzevii; assay: Antifungal activity against Candida krusei FMR9729 infected OF1 mouse disseminated infection model assessed as reduction in kidney tissue fungal burden at 10 mg/kg/day, iv for 5 days administered 24 hrs postinfection measured after 24 hrs post treatment relative to control; assay type: functional, organism-based
[29] = tested on: Pichia kudriavzevii; assay: Antifungal activity against Candida krusei FMR9729 infected OF1 mouse disseminated infection model assessed as reduction in kidney tissue fungal burden at 20 mg/kg/day, iv for 5 days administered 24 hrs postinfection measured after 24 hrs post treatment relative to control; assay type: functional, organism-based
[30] = tested on: Pichia kudriavzevii; assay: Antifungal activity against Candida krusei FMR9729 infected OF1 mouse disseminated infection model assessed as reduction in kidney tissue fungal burden at 40 mg/kg/day, po for 5 days administered 24 hrs postinfection measured after 24 hrs post treatment relative to control; assay type: functional, organism-based
[31] = tested on: Pichia kudriavzevii; assay: Antifungal activity against Candida krusei FMR9729 infected OF1 mouse disseminated infection model assessed as reduction in kidney tissue fungal burden at 60 mg/kg/day, po for 5 days administered 24 hrs postinfection measured after 24 hrs post treatment relative to control; assay type: functional, organism-based
[32] = tested on: Pichia kudriavzevii; assay: Antifungal activity against Candida krusei FMR9729 infected OF1 mouse disseminated infection model assessed as reduction in spleen tissue fungal burden at 10 mg/kg/day, iv for 5 days administered 24 hrs postinfection measured after 24 hrs post treatment relative to control; assay type: functional, organism-based
[33] = tested on: Pichia kudriavzevii; assay: Antifungal activity against Candida krusei FMR9729 infected OF1 mouse disseminated infection model assessed as reduction in spleen tissue fungal burden at 20 mg/kg/day, iv for 5 days administered 24 hrs postinfection measured after 24 hrs post treatment relative to control; assay type: functional, organism-based
[34] = tested on: Pichia kudriavzevii; assay: Antifungal activity against Candida krusei FMR9729 infected OF1 mouse disseminated infection model assessed as reduction in spleen tissue fungal burden at 40 mg/kg/day, po for 5 days administered 24 hrs postinfection measured after 24 hrs post treatment relative to control; assay type: functional, organism-based
[35] = tested on: Pichia kudriavzevii; assay: Antifungal activity against Candida krusei FMR9729 infected OF1 mouse disseminated infection model assessed as reduction in spleen tissue fungal burden at 60 mg/kg/day, po for 5 days administered 24 hrs postinfection measured after 24 hrs post treatment relative to control; assay type: functional, organism-based
[36] = tested on: Pichia kudriavzevii; assay: Antifungal activity against 5 x 10^7 CFU Candida krusei FMR9728 infected OF1 mouse disseminated infection model assessed as prolongation of mouse survival at 10 mg/kg/day, iv for 5 days administered 24 hrs postinfection measured daily for 15 days; assay type: functional, organism-based
[37] = tested on: Pichia kudriavzevii; assay: Antifungal activity against 5 x 10^7 CFU Candida krusei FMR9728 infected OF1 mouse disseminated infection model assessed as prolongation of mouse survival at 20 mg/kg/day, iv for 5 days administered 24 hrs postinfection measured daily for 15 days; assay type: functional, organism-based
[38] = tested on: Pichia kudriavzevii; assay: Antifungal activity against 5 x 10^7 CFU Candida krusei FMR9728 infected OF1 mouse disseminated infection model assessed as prolongation of mouse survival at 40 mg/kg/day, po for 5 days administered 24 hrs postinfection measured daily for 15 days; assay type: functional, organism-based

Q: Which results are given for `CC[C@@H]([C@H](C)O)n1ncn(-c2ccc(N3CCN(c4ccc(OC[C@@H]5CO[C@@](Cn6cncn6)(c6ccc(F)cc6F)C5)cc4)CC3)cc2)c1=O` [POSACONAZOLE]?
A: Activity [1]: Active; Activity [2]: Active; Activity [3]: Active; Activity [4]: Active; Activity [5]: Active; Activity [6]: Active; Activity [7]: Active; Activity [8]: Active; Activity [9]: Active; Activity [10]: Active; Activity [11]: Active; Activity [12]: Active; MFC [13]: 1 µg/mL (≈ 1.43 µM); MIC50 [13]: 0.125 µg/mL (≈ 0.178 µM); MFC [14]: 2 µg/mL (≈ 2.85 µM); MIC50 [14]: 0.25 µg/mL (≈ 0.357 µM)

Q: What does the source list for `C[C@@H](c1ncncc1F)[C@](O)(Cn1cncn1)c1ccc(F)cc1F` [VORICONAZOLE]?
A: Activity [15]: Active; Activity [16]: Active; Activity [17]: Active; Activity [18]: Active; Activity [19]: Active; Activity [20]: inactive; Activity [21]: inactive; Activity [22]: Active; Activity [23]: Active; Activity [24]: inactive; Activity [25]: inactive; Activity [26]: Active; Activity [27]: Active; Activity [28]: inactive; Activity [29]: inactive; Activity [30]: inactive; Activity [31]: Active; Activity [32]: inactive; Activity [33]: inactive; Activity [34]: inactive; Activity [35]: Active; MFC [13]: 16 µg/mL (≈ 45.8 µM); MIC50 [13]: 0.125 µg/mL (≈ 0.358 µM); MFC [14]: > 16 µg/mL; MIC50 [14]: 0.25 µg/mL (≈ 0.716 µM); Activity [36]: Active; Activity [37]: Active; Activity [38]: Active
